Test results as given in ChEMBL document CHEMBL4342436, “Artemisia: a promising plant for the treatment of cancer” (Bioorg Med Chem, 2020).
Values after ≈ are worked out from the molar mass of the structure shown.

Columns and labels:
[1] = Cytotoxicity against mouse Meth-A cells by MTT assay; type: functional; details: read-out: ED50 (the source's name)
[2] = test system: A549; assay: Cytotoxicity against human A549 cells after 72 hrs by MTT assay; type: functional, cell-based; details: A549, 72 h
[3] = test system: HCT-8; assay: Cytotoxicity against human HCT8 cells after 72 hrs by MTT assay; type: functional, cell-based; details: HCT-8, 72 h
[4] = test system: BGC-823; assay: Cytotoxicity against human BGC823 cells after 72 hrs by MTT assay; type: functional, cell-based; details: BGC-823, 72 h
[5] = test system: HL-60; assay: Antiproliferative activity against human HL60 cells assessed as reduction in cell viability after 3 days by XTT assay; type: functional, cell-based; details: HL-60, 72 h
[6] = test system: MIA PaCa-2; assay: Cytotoxicity against human MIAPaCa2 cells after 24 hrs by MTT assay; type: functional, cell-based; details: MIA PaCa-2, 24 h
[7] = test system: HEp-2; assay: Cytotoxicity against human Hep2 cells after 24 hrs by MTT assay; type: functional, cell-based; details: HEp-2, 24 h
[8] = test system: HT-29; assay: Cytotoxicity against human HT-29 cells after 24 hrs by MTT assay; type: functional, cell-based; details: HT-29, 24 h
[9] = test system: A549; assay: Cytotoxicity against human A549 cells after 24 hrs by MTT assay; type: functional, cell-based; details: A549, 24 h
[10] = test system: THP-1; assay: Cytotoxicity against human THP1 cells after 48 hrs by trypan blue dye exclusion counting method; type: functional, cell-based; details: THP-1, 48 h
[11] = test system: MCF-10A; assay: Induction of apoptosis n human MCF10A transformed with RAS gene at 100 uM by flow cytometric analysis relative to control; type: functional
[12] = test system: K562; assay: Cytotoxicity against human K562 cells assessed as cell viability at 75 uM after by MTT assay relative to control; type: functional; details: read-out: Activity
[13] = test system: K562; assay: Antiproliferative activity against human K562 cells assessed as cell viability at 75 uM after 48 hrs relative to control; type: functional; details: K562, 48 h, read-out: Activity
[14] = test system: NCI-H23; assay: Antitumour activity against human NCI-H23 cells xenografted in nude mouse assessed as inhibition of tumour growth at 50 mg/kg, ip for 17 days relative to control; type: functional; details: 408 h, read-out: TGI
[15] = test system: SW-620; assay: Antitumour activity against human SW620 cells xenografted in nude mouse assessed as inhibition of tumour growth at 50 mg/kg, ip for 17 days relative to control; type: functional; details: SW-620, ip, 408 h, read-out: TGI
[16] = test system: HL-60; assay: Cytotoxicity against human HL60 cells; type: functional, cell-based
[17] = Cytotoxicity against human 95-D cells by SRB assay; type: functional, cell-based
[18] = test system: K562; assay: (§1) Cytotoxicity against human K562 cells; type: functional, cell-based
[19] = test system: SMMC-7721; assay: Cytotoxicity against human SMMC7721 cells by MTT assay; type: functional, cell-based
[20] = test system: SGC-7901; assay: Cytotoxicity against human SGC7901 cells by MTT assay; type: functional, cell-based
[21] = test system: MCF7; assay: Cytotoxicity against human MCF7 cells at 50 nM in presence of doxorubicin relative to control; type: functional
[22] = Cytotoxicity against human PG100 cells assessed as cell viability at 955.2 ug/mL after 24 hrs by MTT assay relative to control; type: functional; details: read-out: Activity
[23] = test system: A-431; assay: Cytotoxicity against human A431 cells assessed as reduction in cell viability incubated for 24 hrs by MTT assay; type: functional, cell-based; details: A-431, 24 h
[24] = test system: B16-F10; assay: Cytotoxicity against mouse B16F10 cells assessed as reduction in cell viability incubated for 24 hrs by MTT assay; type: functional, cell-based; details: B16-F10, 24 h
[25] = test system: MIA PaCa-2; assay: Antiproliferative activity against human MIAPaCa2 cells assessed as reduction in cell viability after 48 hrs by MTT assay; type: functional, cell-based; details: MIA PaCa-2, 48 h
[26] = test system: BHY; assay: Antiproliferative activity against human BHY cells assessed as reduction in cell viability after 48 hrs by MTT assay; type: functional, cell-based
[27] = test system: COLO 205; assay: Antiproliferative activity against human COLO205 cells assessed as reduction in cell viability after 48 hrs by MTT assay; type: functional, cell-based; details: COLO 205, 48 h
[28] = test system: A549; assay: Antiproliferative activity against human A549 cells assessed as reduction in cell viability after 48 hrs by MTT assay; type: functional, cell-based; details: A549, 48 h
[29] = test system: MCF7; assay: Antiproliferative activity against human MCF7 cells assessed as reduction in cell viability after 48 hrs by MTT assay; type: functional, cell-based; details: MCF7, 48 h
[30] = test system: OVCAR-3; assay: Growth inhibition of human OVCAR3 cells assessed as reduction in cell viability at 15 uM by MTT assay relative to control; type: functional; details: read-out: GI
[31] = test system: IGROV-1; assay: Growth inhibition of human IGROV1 cells assessed as reduction in cell viability at 15 uM by MTT assay relative to control; type: functional; details: read-out: GI
[32] = test system: HCT-116; assay: Growth inhibition of human HCT116 cells assessed as reduction in cell viability at 15 uM by MTT assay relative to control; type: functional; details: read-out: GI
[33] = test system: HepG2; assay: Cytotoxicity against human HepG2 cells assessed as reduction in cell viability by CCK8 assay; type: functional, cell-based
[34] = test system: A549; assay: Cytotoxicity against human A549 cells assessed as reduction in cell viability by CCK8 assay; type: functional, cell-based
[35] = test system: U2OS; assay: Cytotoxicity against human U2OS cells assessed as cell viability after 48 hrs in presence of allicin by MTT assay relative to control; type: functional
[36] = test system: BGC-823; assay: Cytotoxicity against human BGC823 assessed as cell viability at 160 mg/l after 48 hrs by MTT assay relative to control; type: functional; details: BGC-823, 48 h, read-out: Activity
[37] = test system: Lymphocyte; assay: Cytotoxicity against human lymphocytes; type: cell-based
[38] = test system: HGC-27; assay: Cytotoxicity against human HGC27 assessed as cell viability at 160 mg/l after 48 hrs by MTT assay relative to control; type: functional; details: HGC-27, 48 h, read-out: Activity
[39] = test system: H22; assay: Antitumour activity against mouse H22 cells transplanted in mouse assessed as tumour growth inhibition at 300 mg/kg after 7 days relative to control; type: functional; details: H22, 168 h, read-out: TGI
[40] = test system: CFPAC-1; assay: Antitumour activity against human CFPAC-1 cells xenografted in ip dosed nude BALB/c mouse assessed as tumor weight for 18 days; type: functional
[41] = test system: CFPAC-1; assay: Cytotoxicity against human CFPAC-1 cells assessed as cell viability after 24 hrs by MTT assay relative to control; type: functional
[42] = test system: MGC-803; assay: Cytotoxicity against human MGC803 assessed as cell viability at 160 mg/l after 48 hrs by MTT assay relative to control; type: functional; details: MGC-803, 48 h, read-out: Activity
[43] = test system: MG-63; assay: Antitumour activity against human MG63 cells xenografted in nude BALB/c mouse assessed as tumour weight at […], ip for 5 days co-treated with allicin; type: functional
[44] = test system: PANC-1; assay: Antitumour activity against human PANC1 cells xenografted in ip dosed nude BALB/c mouse assessed as tumor weight for 18 days; type: functional
[45] = test system: MG-63; assay: Cytotoxicity against human MG63 cells assessed as cell viability after 48 hrs in presence of allicin by MTT assay relative to control; type: functional
[46] = test system: PANC-1; assay: Cytotoxicity against human PANC1 cells assessed as cell viability after 24 hrs by MTT assay relative to control; type: functional
[47] = test system: Y79; assay: Induction of cell death in human Y79 cells by propidium iodide staining based flow cytometric analysis relative to control; type: functional
[48] = test system: HL-60(TB); assay: Cytotoxicity against human HL-60(TB) cells; type: functional; details: read-out: ED50 (the source's name)
[49] = test system: CCRF-CEM; assay: Cytotoxicity against human CCRF-CEM cells; type: functional; details: read-out: ED50 (the source's name)
[50] = test system: K562; assay: as §1; type: functional; details: read-out: ED50 (the source's name)
[51] = test system: BGC-823; assay: Cytotoxicity against human BGC823 cells; type: functional, cell-based
[52] = test system: HCT-8; assay: Cytotoxicity against human HCT8 cells; type: functional, cell-based
[53] = test system: A549; assay: Cytotoxicity against human A549 cells; type: functional, cell-based

CC(C)C(=O)CC[C@@H](C)[C@H]1CC[C@@]2(C)[C@@H]3CC[C@H]4C(C)(C)[C@@H](O)CC[C@@]45C[C@@]35CC[C@]12C
EC50 [1]: 4 to 10 µg/mL (≈ 9.03 to 22.6 µM)

CC#CC#CC1=C(CCCCO)C(O)C(O)C1=O (stereo not drawn)
IC50 [2]: 7.5 µM
IC50 [3]: 4.6 µM
IC50 [4]: 1100 nM

CC#CC#CC(=O)c1ccccc1
IC50 [5]: 1.1 to 40.7 µg/mL (≈ 6.54 to 242 µM)
IC50 [6]: 0.6 to 6.1 µM
IC50 [7]: 0.6 to 6.1 µM
IC50 [8]: 0.6 to 6.1 µM
IC50 [9]: 0.6 to 6.1 µM

COc1cc(-c2cc(=O)c3c(O)c(OC)c(O)cc3o2)ccc1O [JACEOSIDINE]
IC50 [10]: 70.5 µM
Activity [11]: 48.72%

C[C@@H]1C(=O)O[C@H]2C1CC[C@@]1(C)[C@H](O)CC[C@@]13C[C@]2(O)OO3 (stereo partly drawn)
viability at 75 µM [12]: 40%
viability at 75 µM [13]: 40%

C=C1C(=O)O[C@@H]2[C@@H]3[C@@]4(C=C[C@@]3(C)[C@@]3(C4)C(=O)O[C@@H]4[C@H]5C(C)=CC(=O)C5=C(C)C[C@H](OC(=O)/C(C)=C\C)[C@H]43)[C@](C)(O)CC[C@@H]12
inhibition in vivo at 50 mg/kg [14]: 30.3%
inhibition in vivo at 50 mg/kg [15]: 39.5%

C=C1CCC(O)C2(C)CCC3C(C)C(=O)OC3C12O (stereo not drawn)
IC50 [16]: 71.1 µM
IC50 [17]: 11.3 µM
IC50 [18]: 22.5 µM

CC1=CC2O[C@@H]3C[C@H]4OC(=O)/C=C\CC[C@]56OCCC7(OC7C(=O)OC[C@@]2(CC1)[C@]4(C)[C@]31CO1)[C@H]5OC(=O)[C@H]6O (stereo partly drawn)
IC50 [19]: 10.54 µg/mL (≈ 18.9 µM)
IC50 [20]: 0.26 µg/mL (≈ 0.465 µM)

CO[C@H]1O[C@@H]2O[C@@]3(C)CC[C@H]4[C@H](C)CC[C@@H]([C@H]1C)[C@@]24OO3
Activity [21]: 50%
viability at 955.2 µg/mL [22]: 5.55%

C=C1C(=O)O[C@H]2[C@H]1CCC(C)=C1C[C@H]3O[C@@]3(C)[C@@H]12 [LUDARTIN]
IC50 [23]: 19 µM
IC50 [24]: 6.6 µM
IC50 [25]: 25.2 to 88.1 µM
IC50 [26]: 25.2 to 88.1 µM
IC50 [27]: 25.2 to 88.1 µM
IC50 [28]: 25.2 to 88.1 µM
IC50 [29]: 25.2 to 88.1 µM

COc1cc2oc(-c3ccc(O)c(O)c3)cc(=O)c2c(O)c1OC [CIRSILIOL]
inhibition of growth at 15 µM [30]: 53.7%
inhibition of growth at 15 µM [31]: 48.8%
inhibition of growth at 15 µM [32]: 40.9%

C=C1C(=O)O[C@@H]2[C@@H]3C4(C=C[C@@]3(C)[C@]3(C4)C(=O)O[C@@H]4[C@H]5C(C)=CC(=O)C5=C(C)C[C@H](OC(C)=O)[C@H]43)[C@@](C)(OC(C)=O)CC[C@@H]12
IC50 [33]: 600 to 5400 nM
IC50 [34]: 600 to 5400 nM

C[C@H]1[C@H](OC(=O)CCC(=O)O)O[C@@H]2O[C@@]3(C)CC[C@H]4[C@H](C)CC[C@@H]1[C@@]24OO3 [ARTESUNATE]
Activity [35]: <25%
viability at 160 µg/mL [36]: < 20%
IC50 [37]: 80 µM
viability at 160 µg/mL [38]: < 20%
inhibition in vivo at 300 mg/kg [39]: 49.1%
Activity [40]: <0.4 g
Activity [41]: <10%
viability at 160 µg/mL [42]: < 20%
Activity [43]: <0.5 g
Activity [44]: <0.4 g
Activity [45]: <25%
Activity [46]: <10%
Activity [47]: 80%

C=C1C(=O)O[C@@H]2O[C@@]3(C)CC[C@H]4[C@H](C)CC[C@@H]1[C@@]24O3 [DEOXYARTEMISITENE]
EC50 [48]: 0.62 µg/mL (≈ 2.35 µM)
EC50 [49]: 0.92 µg/mL (≈ 3.48 µM)
EC50 [50]: 0.94 µg/mL (≈ 3.56 µM)

CC(=O)OCC1=C2CC[C@@]3(C)[C@H](O)CC(OC(C)=O)=C(C)[C@@H]3[C@H]2OC1=O
IC50 [51]: 2710 nM
IC50 [52]: 3.76 µM
IC50 [53]: 5.49 µM
